Values of other authors in patent US11446320B1, “Pharmaceutical combination having potent antiviral activity against single-stranded RNA viruses” (priority 2021, dated 2022).

Legend:
SARS-CoV-2 = conditions: mammalian cells, in vitro

NC(=O)c1nc(F)c[nH]c1=O [Favipiravir]
effectiveness against influenza viruses (influenza viruses): effective | effectiveness against filoviruses (filoviruses): effective | effectiveness against arenaviruses (arenaviruses): effective | effectiveness against bunyaviruses (bunyaviruses): effective

NC(=O)c1nc(F)cn([C@@H]2O[C@H](COP(=O)(O)OP(=O)(O)OP(=O)(O)O)[C@@H](O)[C@H]2O)c1=O [favipiravir-RTP]
effectiveness against influenza viruses (influenza viruses): effective | effectiveness against filoviruses (filoviruses): effective | effectiveness against arenaviruses (arenaviruses): effective | effectiveness against bunyaviruses (bunyaviruses): effective

ivermectin
inhibition of dengue virus (dengue virus): inhibit | replication of SARS-CoV-2 (SARS-CoV-2): slow replication | inhibition of yellow fever virus (yellow fever virus): inhibit
